67 compounds from patent publication US7879846B2, “Serine hydrolase inhibitors” (Kyorin Pharmaceutical Co.., Ltd., priority 2006, dated 2011) can be followed below.

In general, IC50 refers to the concentration that gives 50% inhibition.

In this test the target is T1, Human sputum neutrophil elastase (Homo sapiens, UniProt P08246).
T1 construct: purchased Elastin Products Co; host or cells: human sputum (natural source)
T1 sequence (P08246 30-247 limits assumed): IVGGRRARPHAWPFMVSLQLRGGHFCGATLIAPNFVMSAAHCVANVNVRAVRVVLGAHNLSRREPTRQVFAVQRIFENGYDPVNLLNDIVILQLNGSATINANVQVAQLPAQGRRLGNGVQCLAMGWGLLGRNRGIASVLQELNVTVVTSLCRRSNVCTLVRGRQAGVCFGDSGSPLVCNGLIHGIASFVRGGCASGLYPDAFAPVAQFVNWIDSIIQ
The experiment in a line: Inhibitor IC50 against human neutrophil elastase (fluorogenic MeOSuc-AAPV-AMC substrate). In kind it is biochemical. As to conditions: 20 min preincubation, read-out: HNE IC50. Here is the method:
Determination of Inhibitor IC50 Values Against Human Neutrophil Elastase
Human sputum neutrophil elastase (Elastin Products Co.) was diluted into Assay Buffer A (200 mM Tris pH 7.4, 1 mg/ml BSA) to a working concentration of 0.55 U/ml. […] DMSO alone was used as the negative control. MeOSuc-AAPV-AMC (Bachem) substrate was dissolved in DMSO to 20 mM and further diluted to 1 mM in Assay Buffer A immediately before use. Substrate was added to the elastase assay at a final concentration of 1×10^−4 M. The reaction was allowed to proceed for 20 minutes at room temperature and then quenched with acetic acid at a final concentration of 3% (v/v). […] Fluorescence intensity versus inhibitor concentration was plotted and fit to the Hill equation to quantify IC50 values.
On to `CCc1cccc2nc(-c3cccnc3N3CC[N+](C)(CC4CC4)CC3)oc(=O)c12` [Compound 103], for which the IC50 is below 15 nM.

In the case of `CCc1cccc2nc(-c3cccnc3N3CCN4CCCC4C3)oc(=O)c12` (stereo not shown) [Compound 104], the IC50 is below 15 nM.

For `CCc1cc(OC)cc2nc(-c3cccnc3-n3ccnc3)oc(=O)c12` [Compound 106], the IC50 was below 15 nM.

Turning to `COCCOCCOCCOCCOCCOCCOCCOc1ncccc1-c1nc2cc(OC)cc(C(C)C)c2c(=O)o1` [Compound 108], the IC50 was above 150 nM.

For the compound `COc1cc(C(C)C)c2c(=O)oc(-c3cccnc3-n3ccnc3)nc2c1` [Compound 109], the IC50 lay within 16 to 60 nM.

In the case of `COc1cc(C(C)C)c2c(=O)oc(-c3cccnc3N3CC[C@@H](N(C)C)C3)nc2c1` [Compound 110], the IC50 fell in the range of 61 to 150 nM.

`COc1cc(C(C)C)c2c(=O)oc(-c3cccnc3N3CC[C@H](N(C)C)C3)nc2c1` [Compound 111]: the IC50 lay within 61 to 150 nM.

With `COc1cc(C(C)C)c2c(=O)oc(-c3cccnc3N3CCN(CC4CC4)CC3)nc2c1` [Compound 112], the IC50 is 61 to 150 nM.

Turning to `COCCN1CCN(c2ncccc2-c2nc3cc(OC)cc(C(C)C)c3c(=O)o2)CC1` [Compound 113], the IC50 was in the range of 61 to 150 nM.

Consider `COc1cc(C(C)C)c2c(=O)oc(-c3cccnc3N3CCN(CCN4CCOCC4)CC3)nc2c1` [Compound 114], for which the IC50 lay within 61 to 150 nM.

In the case of `COc1cc(C(C)C)c2c(=O)oc(-c3cccnc3N3CCN(CCN(C)C)CC3)nc2c1` [Compound 115], the IC50 fell in the range of 61 to 150 nM.

In the case of `COc1cc(C(C)C)c2c(=O)oc(-c3cccnc3N(C)C3CCN(C)C3)nc2c1` (stereo not shown) [Compound 117], the IC50 lay in the range of 61 to 150 nM.

`COc1cc(C(C)C)c2c(=O)oc(-c3cccnc3N(C)CCN(C)C)nc2c1` [Compound 118]: the IC50 lay within 61 to 150 nM.

With `COCCN1CCN(c2c(-c3nc4cc(OC)cc(C(C)C)c4c(=O)o3)cnn2C)CC1` [Compound 119], the half-maximal inhibitory concentration (IC50) was above 150 nM.

As for `COc1cc(C(C)C)c2c(=O)oc(-c3cnn(C)c3[N+](=O)[O-])nc2c1` [Compound 120], the IC50 lay in the range of 16 to 60 nM.

Consider `COc1cc(C(C)C)c2c(=O)oc(-c3cccnc3N3CCCN(C)CC3)nc2c1` [Compound 122], for which the IC50 is 61 to 150 nM.

Turning to `COc1cc(C(C)C)c2c(=O)oc(-c3cnn(C)c3N3CCN(C)CC3)nc2c1` [Compound 123], the IC50 is above 150 nM.

As for `COc1cc(C(C)C)c2c(=O)oc(-c3cnn(C)c3N(C)CCN(C)C)nc2c1` [Compound 124], the IC50 was above 150 nM.

For the compound `COc1cc(C(C)C)c2c(=O)oc(-c3cnn(C)c3N3CCN(CCN(C)C)CC3)nc2c1` [Compound 125], the IC50 was above 150 nM.

For `COc1cc(C(C)C)c2c(=O)oc(-c3cnn(C)c3N3CC[C@H](N(C)C)C3)nc2c1` [Compound 126], the IC50 is above 150 nM.

Take `COc1cc(C(C)C)c2c(=O)oc(-c3cnn(C)c3N3CCC(N(C)C)C3)nc2c1` (stereo not shown) [Compound 127]: the IC50 was above 150 nM.

Regarding `COc1cc(C(C)C)c2c(=O)oc(-c3cccnc3N3CC[N+](C)(CC(N)=O)CC3)nc2c1` [Compound 129], the IC50 lay in the range of 61 to 150 nM.

`COc1cc(C(C)C)c2c(=O)oc(-c3cccnc3N3CC[N+](C)(C)CC3)nc2c1` [Compound 130]: the IC50 lay within 61 to 150 nM.

As to `CCc1cc(OC)cc2nc(-c3cccnc3N3CC[C@@H](N(C)C)C3)oc(=O)c12` [Compound 131], the IC50 is below 15 nM.

As for `CCc1cc(OC)cc2nc(-c3cccnc3N(C)C3CCN(C)C3)oc(=O)c12` (stereo not shown) [Compound 138], the IC50 is 16 to 60 nM.

Take `COc1cc(C2CC2)c2c(=O)oc(-c3cccnc3N3CCCN(C)CC3)nc2c1` [Compound 140]: the IC50 lay within 61 to 150 nM.

As to `CCc1cc(N(C)C)cc2nc(-c3cccnc3N(C)C3CCN(C)C3)oc(=O)c12` (stereo not shown) [Compound 144], the half-inhibitory concentration (IC50) was above 150 nM.

For the compound `CCCc1cc(OC)cc2nc(-c3cccnc3N(C)C3CCN(C)C3)oc(=O)c12` (stereo not shown) [Compound 146], the IC50 is above 150 nM.

With `CCCc1cc(OC)cc2nc(-c3cccnc3N3CCN(CCN4CCOCC4)CC3)oc(=O)c12` [Compound 147], the 50% inhibitory concentration (IC50) lay in the range of 61 to 150 nM.

For the compound `CCCc1cc(OC)cc2nc(-c3cccnc3N3CC[C@H](N(C)C)C3)oc(=O)c12` [Compound 148], the IC50 lay within 16 to 60 nM.

Take `CCCc1cc(OC)cc2nc(-c3cccnc3N3CC[C@@H](N(C)C)C3)oc(=O)c12` [Compound 149]: the IC50 lay in the range of 61 to 150 nM.

On to `CCCc1cc(OC)cc2nc(-c3cccnc3N3CCN(CCOC)CC3)oc(=O)c12` [Compound 150], for which the IC50 is 61 to 150 nM.

`CCCc1cc(OC)cc2nc(-c3cccnc3N(C)CCN(C)C)oc(=O)c12` [Compound 151]: the concentration for half-maximal inhibition (IC50) fell in the range of 16 to 60 nM.

Consider `CCc1cccc2nc(-c3cccnc3N3CCN(CCN4CCOCC4)CC3)oc(=O)c12` [Compound 152], for which the IC50 is below 15 nM.

For the compound `CCc1cccc2nc(-c3cccnc3N(C)C3CCN(C)C3)oc(=O)c12` (stereo not shown) [Compound 153], the IC50 is 16 to 60 nM.

Take `CCc1cccc2nc(-c3cccnc3N(C)CCN(C)C)oc(=O)c12` [Compound 154]: the IC50 is below 15 nM.

For `CCCc1cc(OC)cc2nc(-c3cccnc3N3CCCN(C)CC3)oc(=O)c12` [Compound 156], the IC50 is 61 to 150 nM.

Consider `CCCc1cc(OC)cc2nc(-c3cccnc3N3CCN(CC4CC4)CC3)oc(=O)c12` [Compound 157], for which the IC50 is 61 to 150 nM.

`CCCc1cc(OC)cc2nc(-c3cccnc3N3CCN(CCN(C)C)CC3)oc(=O)c12` [Compound 158]: the concentration for half-maximal inhibition (IC50) was in the range of 16 to 60 nM.

With `CCc1cccc2nc(-c3cccnc3N3CCN(CCN(C)C)CC3)oc(=O)c12` [Compound 162], the IC50 is below 15 nM.

`CCCc1cc(OC)cc2nc(-c3cccnc3N3CCC(C(=O)C[S+](C)[O-])CC3)oc(=O)c12` (stereo not shown) [Compound 163]: the IC50 lay within 61 to 150 nM.

Turning to `COc1cc(C2CC2)c2c(=O)oc(-c3cccnc3N3CC[C@@H](N(C)C)C3)nc2c1` [Compound 164], the IC50 lay in the range of 61 to 150 nM.

Turning to `COc1cc(C2CC2)c2c(=O)oc(-c3cccnc3N3CC[C@H](N(C)C)C3)nc2c1` [Compound 165], the IC50 was 61 to 150 nM.

As to `COc1cc(C2CC2)c2c(=O)oc(-c3cccnc3N3CCN(CC4CC4)CC3)nc2c1` [Compound 166], the IC50 lay within 61 to 150 nM.

On to `COCCN1CCN(c2ncccc2-c2nc3cc(OC)cc(C4CC4)c3c(=O)o2)CC1` [Compound 167], for which the IC50 fell in the range of 61 to 150 nM.

Turning to `COc1cc(C2CC2)c2c(=O)oc(-c3cccnc3N3CCN(CCN4CCOCC4)CC3)nc2c1` [Compound 168], the IC50 is 61 to 150 nM.

Turning to `COc1cc(C2CC2)c2c(=O)oc(-c3cccnc3N3CCN(CCN(C)C)CC3)nc2c1` [Compound 170], the concentration for half-maximal inhibition (IC50) is 61 to 150 nM.

On to `COc1cc(C2CC2)c2c(=O)oc(-c3cccnc3N(C)CCN(C)C)nc2c1` [Compound 172], for which the IC50 fell in the range of 61 to 150 nM.

For the compound `COc1cc(C2CCC2)c2c(=O)oc(-c3cccnc3N3CCC[C@H](C(=O)O)C3)nc2c1` [Compound 174], the concentration for half-maximal inhibition (IC50) was above 150 nM.

As for `COc1cc(C2CCC2)c2c(=O)oc(-c3cccnc3N3CC[C@@H](N(C)C)C3)nc2c1` [Compound 175], the IC50 was above 150 nM.

Turning to `COc1cc(C2CCC2)c2c(=O)oc(-c3cccnc3N3CC[C@H](N(C)C)C3)nc2c1` [Compound 176], the 50% inhibitory concentration (IC50) lay in the range of 61 to 150 nM.

For `Cc1cccc2nc(-c3cccnc3N3CC[C@H](N(C)C)C3)oc(=O)c12` [Compound 177], the IC50 was in the range of 16 to 60 nM.

With `Cc1cccc2nc(-c3cccnc3N3CC[C@@H](N(C)C)C3)oc(=O)c12` [Compound 178], the IC50 was in the range of 16 to 60 nM.

As for `Cc1cccc2nc(-c3cccnc3N3CCN(CCN4CCOCC4)CC3)oc(=O)c12` [Compound 179], the IC50 was 16 to 60 nM.

On to `Cc1cccc2nc(-c3cccnc3N3CCN(CCN(C)C)CC3)oc(=O)c12` [Compound 180], for which the IC50 was 16 to 60 nM.

Take `COc1cc(C2CCC2)c2c(=O)oc(-c3cccnc3N3CCN(CCN(C)C)CC3)nc2c1` [Compound 186]: the IC50 fell in the range of 61 to 150 nM.

As for `COc1cc(C2CCC2)c2c(=O)oc(-c3cccnc3N3CCN(CCN4CCOCC4)CC3)nc2c1` [Compound 187], the IC50 was above 150 nM.

For the compound `COc1cc(C2CCC2)c2c(=O)oc(-c3cccnc3N(C)CCN(C)C)nc2c1` [Compound 188], the IC50 fell in the range of 16 to 60 nM.

Take `CCc1cc(OC)cc2nc(-c3cccnc3N3CCC(N(CC)CC)C3)oc(=O)c12` (stereo not shown) [Compound 189]: the IC50 was below 15 nM.

For `CCc1cc(OC)cc2nc(-c3cccnc3N3CCN(CC4OCCO4)CC3)oc(=O)c12` [Compound 191], the IC50 is below 15 nM.

Consider `C=CCN1CCN(c2ncccc2-c2nc3cc(OC)cc(CC)c3c(=O)o2)CC1` [Compound 193], for which the IC50 is below 15 nM.

As to `CCc1cc(OC)cc2nc(-c3cccnc3N3CCCN(C)CC3)oc(=O)c12` [Compound 195], the IC50 is below 15 nM.

Regarding `CCOC(=O)CN1CCN(c2ncccc2-c2nc3cc(OC)cc(CC)c3c(=O)o2)CC1` [Compound 196], the IC50 is below 15 nM.

With `CCc1cc(OC)cc2nc(-c3cccnc3N3CCN(CC(=O)N4CCOCC4)CC3)oc(=O)c12` [Compound 197], the IC50 was below 15 nM.

For the compound `CCc1cc(OC)cc2nc(-c3cccnc3N3CCN(C(C)C)CC3)oc(=O)c12` [Compound 201], the 50% inhibitory concentration (IC50) was 16 to 60 nM.

Consider `CCc1cc(OC)cc2nc(-c3cccnc3N3CCN(CCNC(=O)OC(C)(C)C)CC3)oc(=O)c12` [Compound 202], for which the IC50 was in the range of 16 to 60 nM.

With `CCOCCN1CCN(c2ncccc2-c2nc3cc(OC)cc(CC)c3c(=O)o2)CC1` [Compound 203], the IC50 is below 15 nM.
